From patent US8124654B2, “Derivatives of hypoestoxide and related compounds” (Immune Modulation, Inc., priority 2008, dated 2012)

Columns and labels:
[1] = tested on: P. falciparum CQ-Sensitive (3D7); assay: In vitro malaria parasite development, 3H-hypoxanthine uptake, CQ-sensitive strain; assay type: cell-based; settings: for IC50: 48 h exposure from ring stage, 3H-hypoxanthine uptake, geometric mean
Protocol: (§1) Parasite cultures were exposed to different concentrations of Formula IV or hypoestoxide (from 100× stocks in DMSO) for 48 h, beginning at the ring stage. Concentrations yielding 50% inhibition (IC50) were extrapolated from plots of mean percent negative control activity over inhibitor concentration as measured by the uptake of ^3H-hypoxanthine. Data was analyzed after logarithmic transformation and expressed as the geometric mean IC50 and 95% confidence intervals.
(§2) Other anti-parasitic agents such as sesquiterpene artemisinin, chloroquine, mixtures thereof, and the like, can also be administered in appropriate doses along with the compounds of formula I-IV.

[2] = tested on: P. berghei berghei (EI strain); assay: In vivo effect in malaria-infected mice (blood parasitemia); settings: female mice, 5 mg/Kg oral once daily for 3 days; Giemsa-stained blood smears
Protocol: Five female mice per group were infected i.p. with 1×10^5P. berghei berghei (EI strain) parasitized RBCs and 3 days later, oral therapy was started at 5 mg/Kg once daily with either Formula IV or Chloroquine for 3 days. […], blood parasitemia was evaluated on each mouse on Giemsa-stained smears.

B16F1 melanocytes = assay: Inhibition of lung colonization of B16F1 melanocytes in mice; assay type: in vivo, C57BL/6 Mice; settings: 5 mg/Kg oral once daily for 10 days; lungs counted on day 16; versus vehicle control
Protocol: 1×10^5 melanoma cells were injected intravenously into the lateral tail vein of each of 30 mice. Before treatment, mice were randomized into six groups of 5 mice per group. Treatment began one hour after intravenous inoculation of the tumor cells. Drugs, at 5 mg/Kg were administered via oral route, once daily for 10 days. Treatment was stopped on day 10. On day 16, lungs were removed and fixed in 10% formaldehyde. The surface melanoma colonies were counted for each lung and the means were established for each group. The mean for each group was used to calculate % inhibition based on the vehicle control.

[3] = tested on: P. falciparum CQ-Resistant (W2 MR4); assay: In vitro malaria parasite development, 3H-hypoxanthine uptake, CQ-resistant strain; assay type: cell-based; settings: for IC50: 48 h exposure from ring stage, 3H-hypoxanthine uptake, geometric mean
Protocol: as §1, §2

IL-1β production = assay: Inhibition of IL-1β production; assay type: cell-based
IL-12 production = assay: Inhibition of IL-12 production; assay type: cell-based
TNF-α production = assay: Inhibition of TNF-α production; assay type: cell-based
IL-6 production = IL-6 production in LPS-stimulated human peripheral blood macrophages (ELISA); assay type: cell-based
Source text: At the end of 24-hour culture, supernatants were removed and tested for the presence of IL-6 by enzymne-linked immunosorbent assay.

[4] = ratio of IC50 versus hypoestoxide

Compound	IC50 [1]	times more active than hypoestoxide against the CQ-sensitive strain [1, 4]	Reduction of Parasitemia (%) [2]	Inhibition (%) of lung melanoma colonies (B16F1 melanocytes)	IC50 [3]	times more active than the parent hypoestoxide against the CQ-resistant strain [3, 4]	inhibition of IL-1β production (in words) (IL-1β production)	inhibition of IL-12 production (in words) (IL-12 production)	inhibition of TNF-α production (in words) (TNF-α production)	Inhibition (%) of IL-6 production (IL-6 production; 10 μM, LPS 3 μg/ml, 24 h)	IL-6 (IL-6 production; 10 μM, LPS 3 μg/ml, 24 h culture supernatant, LPS alone 1200 pg/ml)	inhibition of IL-6 (in words) (IL-6 production; statement of the summary, no conditions given)
12,18-dihydrohypoestoxide [Formula IV]	1.4 µM	about 7 times	92%	65%	0.12 µM	88 times	–	–	–	–	–	–
CCN(CC)CCCC(C)Nc1ccnc2cc(Cl)ccc12 (stereo not shown) [Chloroquine]	–	–	96%	–	–	–	–	–	–	–	–	–
C=C1C(=O)C[C@H]2C[C@@H]3O[C@@]3(C)CC[C@@H]3O[C@@]3(C)C[C@@H](OC(C)=O)[C@H]1C2(C)C [Hypoestoxide, hypoestoxide]	10 µM	–	–	70%	10.6 µM	–	inhibits	inhibits	inhibits	96%	50 pg/mL	inhibits
